In ChEMBL document CHEMBL4651402, “Screening of ~5500 FDA-approved drugs and clinical candidates for anti-SARS-CoV-2 activity” (2021):

Tested on: SARS-CoV-2
Assay: microbe, parasite or virus in culture
Details: Severe acute respiratory syndrome coronavirus 2, Vero C1008, 48 h

Row | Compound | IC50 [µM] | IC50 (read-out: pIC50 (converted)) [µM]
1 | CC(=O)OC1CC(OC2C(O)CC(OC3C(O)CC(OC4CCC5(C)C(CCC6C5CC(O)C5(C)C(C7=CC(=O)OC7)CCC65O)C4)OC3C)OC2C)OC(C)C1OC1OC(CO)C(O)C(O)C1O (configuration not stated) | > 20 | > 20
2 | C=CCOc1ccc(CC(=O)O)cc1Cl [ALCLOFENAC] | > 20 | > 20
3 | C=C1[C@H](CO)[C@@H](O)C[C@@H]1n1cnc2c(=O)[nH]c(N)nc21 | > 20 | > 20
4 | CC(=O)Nc1ccc(O)cc1 [ACETAMINOPHEN] | > 20 | > 20
5 | Cc1ccc(OCC(O)C(C)NC(C)C)c2c1CCC2 (configuration not stated) [ZENIDOLOL] | > 20 | > 20
6 | CCN1c2ncc(CCOc3cc[n+]([O-])c4ccccc34)cc2C(=O)N(C)c2cccnc21 [BILR 355] | > 20 | > 20
7 | CC(C)(C)NCC(O)COc1cccc2c1C(=O)OC2 (configuration not stated) [AFUROLOL] | > 20 | > 20
8 | O=C(CCCN1CC=C(n2c(=O)[nH]c3ccccc32)CC1)c1ccc(F)cc1 [DROPERIDOL] | > 20 | > 20
9 | CC1=C2[C@H]3OC(=O)[C@@H](C)[C@@H]3CC[C@@]2(C)C=CC1=O [SANTONIN] | > 20 | > 20
10 | enfuvirtide | > 20 | > 20
11 | COc1ccc(CC2c3cc(OC)c(OC)cc3CC[N+]2(C)CCC(=O)OCCCCCOC(=O)CC[N+]2(C)CCc3cc(OC)c(OC)cc3C2Cc2ccc(OC)c(OC)c2)cc1OC (configuration not stated) | > 20 | > 20
12 | CC(C)C1C(=O)N2CCCC2C2(O)OC(NC(=O)C3C=C4c5cccc6[nH]cc(c56)CC4N(C)C3)(C(C)C)C(=O)N12 (configuration not stated) | > 20 | > 20
13 | O=C(O)CCCCO/N=C(/c1cccnc1)c1cccc(C(F)(F)F)c1 [RIDOGREL] | > 20 | > 20
14 | COC(=O)[C@@H](N)CCCNC(=N)N[N+](=O)[O-] | > 20 | > 20
15 | N#CC(c1ccc(Cl)cc1)c1c(Cl)cc(-n2ncc(=O)[nH]c2=O)cc1Cl (configuration not stated) [DICLAZURIL] | > 20 | > 20
16 | C=CCOc1ccccc1OCC(O)CNC(C)C (configuration not stated) [OXPRENOLOL] | > 20 | > 20
17 | NCc1c[nH]c(=S)n1[C@H]1CCc2c(F)cc(F)cc2C1 | > 20 | > 20
18 | COC[C@H](O)Cn1c(=O)cnn(-c2ccc(Cl)c(C(=O)NCC3(O)CCCCCC3)c2)c1=O [CE-224535] | > 20 | > 20
19 | N#Cc1nn(-c2c(Cl)cc(C(F)(F)F)cc2Cl)c(N)c1[S+]([O-])C(F)(F)F (configuration not stated) [FIPRONIL] | > 20 | > 20
20 | [2H]C1([2H])COc2ccc(Cc3cc([C@@H]4O[C@H](CO)[C@@H](O)[C@H](O)[C@H]4O)ccc3CC)cc2O1 | > 20 | > 20
21 | Cc1nc(C)c(Cl)c(O)c1Cl [CLOPIDOL] | > 20 | > 20

Row | Compound | IC50 [µM] | IC50 (read-out: pIC50 (converted)) [µM]
22 | O=C(Oc1ccc(Br)cc1)N1CCN2CCC1CC2 [SSR180711] | > 20 | > 20
23 | c1ccc(Cn2cc(CCc3ccncc3)c3ccccc32)cc1 [BENZINDOPYRINE] | > 20 | > 20
24 | O=[N+]([O-])c1cnc(-c2ccc(F)cc2)n1CCO [FLUNIDAZOLE] | > 20 | > 20
25 | O=C(O)c1cc(O)c2cccc(O)c2n1 [XANTHURENATE] | > 20 | > 20
26 | CC(=O)OCC(=O)C1(O)C(C)CC2C3CC(F)C4=CC(=O)C=CC4(C)C3C(O)CC21C (configuration not stated) | > 20 | > 20
27 | Cc1onc(-c2c(F)cccc2Cl)c1C(=O)N[C@@H]1C(=O)N2[C@@H]1SC(C)(C)[C@@H]2C(=O)O [FLOXACILLIN] | > 20 | > 20
28 | CCCCCCCCCCCCCCCC(=O)NCCO [PALMIDROL] | > 20 | > 20
29 | CC(=O)N[C@@H](CS)C(=O)O [ACETYLCYSTEINE] | > 20 | > 20
30 | CC(CCC(=O)O)C1CCC2C3CC[C@@H]4C[C@H](O)CC[C@]4(C)C3C[C@H](O)[C@]12C (some centres not stated) | > 20 | > 20
31 | O=C1O[C@H]([C@@H](O)CO)C(O)=C1O [ASCORBIC ACID] | > 20 | > 20
32 | Cc1ccc([C@@]23Cn4cccc4C(=O)N2CCN3C(=O)c2conc2C)cn1 | > 20 | > 20
33 | CC[C@@]1(O)C(=O)OCc2c1cc1n(c2=O)Cc2c-1nc1ccccc1c2CCNC(C)C [BELOTECAN] | > 20 | > 20
34 | N=C(N)NCCCNC(=O)[C@@H]1CCCCN1C(=O)[C@H](CC1CCCCC1)NCC(=O)O | > 20 | > 20
35 | Nc1nc(=O)c2c([nH]1)NCC(CNc1ccc(C(=O)N[C@@H](CCC(=O)O)C(=O)O)cc1)N2C=O (some centres not stated) [LEUCOVORIN] | > 20 | > 20
36 | COCCOC(=O)C1=C(C)NC(C)=C(C(=O)OC/C=C/c2ccccc2)C1c1cccc([N+](=O)[O-])c1 (configuration not stated) [CILNIDIPINE] | > 20 | > 20
37 | CC[C@@]1(O)C(=O)OCc2c1cc1n(c2=O)Cc2cc3ccccc3nc2-1 [CAMPTOTHECIN] | > 20 | > 20
38 | CN1CCC(O)(c2ccc(F)cc2)C(C(=O)c2ccc(F)cc2)C1 (configuration not stated) [FLAZALONE] | > 20 | > 20
39 | Nc1sc2c(c1C(=O)c1ccc(Cl)cc1)CCCC2 [T-62] | > 20 | > 20
40 | C[C@]12CC[C@H](O)CC1CC[C@@H]1[C@@H]2CC[C@]2(C)C(=O)CC[C@@H]12 (some centres not stated) | > 20 | > 20
41 | N=C(N)c1ccc(CNC(=O)[C@@H]2CCN2C(=O)[C@H](NCC(=O)O)C2CCCCC2)cc1 | > 20 | > 20
42 | NC(=O)c1nc(F)cnc1O | > 50.1 | > 50.1

Row | Compound | IC50 [µM] | IC50 (read-out: pIC50 (converted)) [µM]
43 | O=C(Nc1nc2cccc(-c3ccc(CN4CCS(=O)(=O)CC4)cc3)n2n1)C1CC1 [FILGOTINIB] | > 20 | > 20
44 | Cc1cc(=O)n(-c2ccccc2)n1C [ANTIPYRINE] | > 20 | > 20
45 | CC12CCC3C(CC[C@H]4CC(=O)CCC34C)C1CCC2C(=O)CO (some centres not stated) | > 20 | > 20
46 | C[C@H](CN1CCOCC1)C(C(=O)N1CCCC1)(c1ccccc1)c1ccccc1 | > 20 | > 20
47 | O=c1[nH]c(=O)n(Cl)c(=O)n1Cl [TROCLOSENE] | > 20 | > 20
48 | COc1ncnc(NS(=O)(=O)c2ccc(N)cc2)c1OC [SULFADOXINE] | > 20 | > 20
49 | CCOCc1nc2c(N)nc3ccccc3c2n1CC(C)(C)O [RESIQUIMOD] | > 20 | > 20
50 | CC(C)N(CCNC(=O)CN1CCCC1=O)C(C)C | > 20 | > 20
51 | C[C@@H](CN1CC(=O)NC(=O)C1)N1CC(=O)NC(=O)C1 [DEXRAZOXANE] | > 20 | > 20
52 | CC(C)(C)NCC(O)c1ccc(O)c(CO)c1 (configuration not stated) [ALBUTEROL] | > 20 | > 20
53 | CNNCc1ccc(C(=O)NC(C)C)cc1 [PROCARBAZINE] | > 20 | > 20
54 | CCC1CCCC(OC2CCC(N(C)C)C(C)O2)C(C)C(=O)C2=CC3C(C=C(C)C4CC(OC5OC(C)C(OC)C(OC)C5OC)CC43)C2CC(=O)O1.CCC1CCCC(OC2CCC(N(C)C)C(C)O2)C(C)C(=O)C2=CC3C(C=CC4CC(OC5OC(C)C(OC)C(OC)C5OC)CC43)C2CC(=O)O1 (configuration not stated) | > 20 | > 20
55 | OCC1OC(Oc2ccc(O)cc2)C(O)C(O)C1O (configuration not stated) | > 20 | > 20
56 | COC(=O)Nc1cccc(C)c1CNc1cccn2c(C)c(C)nc12 [PUMAPRAZOLE] | > 20 | > 20
57 | Cc1cn2nc([C@@H]3CCCCN3C(=O)c3cc(Cl)ccc3NS(C)(=O)=O)cc2nc1N1CC[C@H](N)C1 [PRESATOVIR] | > 20 | > 20
58 | Nc1ccc(S(=O)(=O)NC(=O)c2ccccc2)cc1 [SULFABENZAMIDE] | > 20 | > 20
59 | C[N+]1(C)CCCC1COC(=O)C(O)(c1ccccc1)c1ccccc1 (configuration not stated) [POLDINE] | > 20 | > 20
60 | CC(C)C1NC(=O)[C@@H](C(C)C)OC(=O)[C@H](C(C)C)NC(=O)[C@H](C)OC(=O)[C@@H](C(C)C)NC(=O)[C@@H](C(C)C)OC(=O)[C@H](C(C)C)NC(=O)[C@H](C)OC(=O)[C@@H](C(C)C)NC(=O)[C@@H](C(C)C)OC(=O)[C@H](C(C)C)NC(=O)[C@H](C)OC1=O (some centres not stated) | > 20 | > 20
61 | O=C(O)c1ccc2c(c1)OCO2 [PIPERONYLIC ACID] | > 20 | > 20
